# From patent publication US20150105252A1, “SUBSTITUTED PYRAZOLES AS HERBICIDES” (E I DU PONT DE NEMOURS AND COMPANY, priority 2013, published 2015)
# Legend:
# Assay in all cases: Test C postemergence
# blackgrass = assay type: in vivo, Alopecurus myosuroides
# Procedure, shortened: (§1)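 Visual rating, 0–100 scale (0 no effect, 100 complete control), vs untreated controls after 13–15 d greenhouse. Pre: seeds in loam/sand, treated at sowing. Post: plants in peat-based mix, 1- to 4-leaf (2–18 cm). Solvent + surfactant formulation, non-phytotoxic.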
# ryegrass, Italian = assay type: in vivo, Lolium multiflorum
# Procedure, shortened: as §1
# wheat = assay type: in vivo, Triticum aestivum
# Procedure, shortened: as §1
# foxtail, giant = assay type: in vivo, Setaria faberii
# Procedure, shortened: as §1
# johnsongrass = assay type: in vivo, Sorghum halepense
# Procedure, shortened: as §1
# lambsquarters = assay type: in vivo, Chenopodium album
# Procedure, shortened: as §1
# morningglory = assay type: in vivo, Ipomoea coccinea
# Procedure, shortened: as §1
# nutsedge, yellow = assay type: in vivo, Cyperus esculentus
# Procedure, shortened: as §1
# pigweed = assay type: in vivo, Amaranthus retroflexus
# Procedure, shortened: as §1
# ragweed = assay type: in vivo, Ambrosia elation
# Procedure, shortened: as §1
# soybean = assay type: in vivo, Glycine max
# Procedure, shortened: as §1
# barnyardgrass = assay type: in vivo, Echinochloa crus-galli
# Procedure, shortened: as §1
# oilseed rape = assay type: in vivo, Brassica napus
# Procedure, shortened: as §1
# waterhemp = assay type: in vivo, Amaranthus rudis
# Procedure, shortened: as §1
# oat, wild = assay type: in vivo, Avena fatua
# Procedure, shortened: as §1
# kochia = assay type: in vivo, Kochia scoparia
# Procedure, shortened: as §1
# chickweed = assay type: in vivo, Stellaria media
# Procedure, shortened: as §1
# [1] = Postemergence, 31 g ai/ha, visually evaluated after 13 to 15 days
# [2] = postemergence, 62 g ai/ha, scale 0 to 100
# [3] = postemergence, 250 g ai/ha, scale 0 to 100 (0 no effect, 100 complete control)
# [4] = postemergence, 125 g ai/ha, scale 0 to 100, 0 no effect, 100 complete control
smiles,measurement,setting,value
CCOc1cc(C(=O)NCC(F)(F)F)nn1Cc1ccnc(C(F)(F)F)c1 [Compound 104],"Plant response rating (scale of 0 to 100 where 0 is no effect and 100 is complete control), Blackgrass",blackgrass; [1],10
same,Blackgrass plant response rating,blackgrass; [2],10
same,"Plant response rating, Blackgrass",blackgrass; [3],80
same,"Plant response rating, Blackgrass",blackgrass; [4],40
same,"Plant response rating (scale of 0 to 100 where 0 is no effect and 100 is complete control), Ryegrass, Italian","ryegrass, Italian; [1]",5
same,"Ryegrass, Italian plant response rating","ryegrass, Italian; [2]",5
same,"Plant response rating, Ryegrass, Italian","ryegrass, Italian; [3]",80
same,"Plant response rating, Ryegrass, Italian","ryegrass, Italian; [4]",35
same,"Plant response rating (scale of 0 to 100 where 0 is no effect and 100 is complete control), Wheat",wheat; [1],5
same,Wheat plant response rating,wheat; [2],10
same,"Plant response rating, Wheat",wheat; [3],25
same,"Plant response rating, Wheat",wheat; [4],10
same,"Plant response rating (scale of 0 to 100 where 0 is no effect and 100 is complete control), Foxtail, Giant","foxtail, giant; [1]",5
same,"Foxtail, Giant plant response rating","foxtail, giant; [2]",85
same,"Plant response rating, Foxtail, Giant","foxtail, giant; [3]",98
same,"Plant response rating, Foxtail, Giant","foxtail, giant; [4]",90
same,"Plant response rating (scale of 0 to 100 where 0 is no effect and 100 is complete control), Johnsongrass",johnsongrass; [1],5
same,Johnsongrass plant response rating,johnsongrass; [2],15
same,"Plant response rating, Johnsongrass",johnsongrass; [3],85
same,"Plant response rating, Johnsongrass",johnsongrass; [4],40
same,"Plant response rating (scale of 0 to 100 where 0 is no effect and 100 is complete control), Lambsquarters",lambsquarters; [1],80
same,Lambsquarters plant response rating,lambsquarters; [2],95
same,"Plant response rating, Lambsquarters",lambsquarters; [3],95
same,"Plant response rating, Lambsquarters",lambsquarters; [4],95
same,"Plant response rating (scale of 0 to 100 where 0 is no effect and 100 is complete control), Morningglory",morningglory; [1],0
same,Morningglory plant response rating,morningglory; [2],80
same,"Plant response rating, Morningglory",morningglory; [3],98
same,"Plant response rating, Morningglory",morningglory; [4],95
same,"Plant response rating (scale of 0 to 100 where 0 is no effect and 100 is complete control), Nutsedge, Yellow","nutsedge, yellow; [1]",5
same,"Nutsedge, Yellow plant response rating","nutsedge, yellow; [2]",5
same,"Plant response rating, Nutsedge, Yellow","nutsedge, yellow; [3]",60
same,"Plant response rating, Nutsedge, Yellow","nutsedge, yellow; [4]",10
same,"Plant response rating (scale of 0 to 100 where 0 is no effect and 100 is complete control), Pigweed",pigweed; [1],50
same,Pigweed plant response rating,pigweed; [2],85
same,"Plant response rating, Pigweed",pigweed; [3],98
same,"Plant response rating, Pigweed",pigweed; [4],95
same,"Plant response rating (scale of 0 to 100 where 0 is no effect and 100 is complete control), Ragweed",ragweed; [1],85
same,Ragweed plant response rating,ragweed; [2],85
same,"Plant response rating, Ragweed",ragweed; [3],95
same,"Plant response rating, Ragweed",ragweed; [4],95
same,"Plant response rating (scale of 0 to 100 where 0 is no effect and 100 is complete control), Soybean",soybean; [1],90
same,Soybean plant response rating,soybean; [2],95
same,"Plant response rating, Soybean",soybean; [3],95
same,"Plant response rating, Soybean",soybean; [4],95
same,"Plant response rating (scale of 0 to 100 where 0 is no effect and 100 is complete control), Barnyardgrass",barnyardgrass; [1],5
same,Barnyardgrass plant response rating,barnyardgrass; [2],5
same,"Plant response rating, Barnyardgrass",barnyardgrass; [3],90
same,"Plant response rating, Barnyardgrass",barnyardgrass; [4],45
same,"Plant response rating (scale of 0 to 100 where 0 is no effect and 100 is complete control), Oilseed Rape",oilseed rape; [1],40
same,Oilseed Rape plant response rating,oilseed rape; [2],50
same,"Plant response rating, Oilseed Rape",oilseed rape; [3],85
same,"Plant response rating, Oilseed Rape",oilseed rape; [4],60
same,"Plant response rating (scale of 0 to 100 where 0 is no effect and 100 is complete control), Waterhemp",waterhemp; [1],35
same,Waterhemp plant response rating,waterhemp; [2],85
same,"Plant response rating, Waterhemp",waterhemp; [3],98
same,"Plant response rating (scale of 0 to 100 where 0 is no effect and 100 is complete control), Oat, Wild","oat, wild; [1]",5
same,"Oat, Wild plant response rating","oat, wild; [2]",15
same,"Plant response rating, Oat, Wild","oat, wild; [3]",85
same,"Plant response rating, Oat, Wild","oat, wild; [4]",35
same,"Plant response rating (scale of 0 to 100 where 0 is no effect and 100 is complete control), Kochia",kochia; [1],85
same,Kochia plant response rating,kochia; [2],90
same,"Plant response rating, Kochia",kochia; [3],90
same,"Plant response rating, Kochia",kochia; [4],90
same,"Plant response rating (scale of 0 to 100 where 0 is no effect and 100 is complete control), Chickweed",chickweed; [1],55
same,Chickweed plant response rating,chickweed; [2],70
same,"Plant response rating, Chickweed",chickweed; [3],90
same,"Plant response rating, Chickweed",chickweed; [4],80
